Laboratory results reported in patent USRE39576E1, “Enzyme inhibitors” (Smithkline Beecham Corporation, priority 1994, dated 2007).
Counter-ions that a name gives are not always drawn. Like-named read-outs stand apart in the source and are kept apart here.

Assays:
human iNOS [1] = target: T1, human iNOS (Homo sapiens, UniProt P35228); assay: Inhibition of recombinant human iNOS (baculovirus/insect cell cytosol, spectrophotometric microtitre plate assay); format: biochemical; design: made in house; host or cells: baculovirus/insect cell system; insect cytosol assayed unpurified; details: 37° C., L-arginine 30 μM, steady-state 15-30 min; mean ±SEM (n)
Method: Inhibition of recombinant human iNOS was determined following expression in a baculovirus/insect cell system (Charles et al (1994) In: The Biology of Nitric Oxide 4, Moncada S., Feelisch M., Busse R. and Higgs E. A., eds., Portland Press, London, pp 316-320), assaying the insect cytosol for NO synthase in a microtitre plate assay based on the spectrophotometric assay described previously (Knowles et al (1990) Biochem. Biophys. Res. Commun. 172, 1042-1048). The assay was conducted at 37° C. in reaction mixtures containing HEPES (100 mM), DTT (0.1 mM), tetrahydrobiopterin (5 μM), NADPH (100 μM), haemoglobin (5 μM), L-arginine (30 μM) and inhibitor (0-300 μM), measuring the absorbance change at 405-420 nm, and determining the steady-state inhibition between 15 and 30 minutes incubation.

human eNOS = target: T2, human eNOS (Homo sapiens, UniProt P29474); assay: Inhibition of purified human eNOS ([14C]-L-arginine to citrulline conversion); format: biochemical; details: purified human enzyme, 30° C., 0.5 μM [14C]-L-arginine; read-out: Purified Human Enzyme Kd tNOS
T2 construct: made in house
Method: (§1) The inhibition of purified human NO synthases was determined following preparation of human nNOS (Furfine et al. (1993) Biochem. 32, 8512-8517), iNOS (Sherman et al. (1993) Biochem. 32, 11600-11605) and eNOS (Garvey et al. (1994) Arch. Bioch. Biophys., in press) as described. Their activity was monitored by the conversion of [^14C]-L-arginine to citrulline as described by Schmidt et al. ((1991) Proc. Natl. Acad. Sci. USA 88, 365-369) in reaction mixtures (100 μl) containing 50 mM HEPES pH 7.0, 8 μM tetrahydrobiopterin, 1 mM NADPH and 0.5 μM [^14C]-L-arginine (30,000 cpm) at 30° C.

human nNOS = target: T3, human nNOS (Homo sapiens, UniProt P29475); assay: Inhibition of purified human nNOS ([14C]-L-arginine to citrulline conversion); format: biochemical; details: 30° C., 0.5 μM [14C]-L-arginine, read-out: Purified Human Enzyme Kd nNOS
T3 construct: made in house
Method: as §1

iNOS in rat aortic rings = target: T4, iNOS in rat aortic rings (Rattus norvegicus, UniProt Q06518); assay: Inhibition of iNOS in situ in rat aortic rings (LPS-induced loss of tone, endothelium-denuded rings); format: cell-based; details: for IC50: endothelium-denuded rings, LPS 6 h, mean ±SEM (n), read-out: IC50 iNOS in rate sortic rings; for Selectivity for iNOS: rat aortic rings, iNOS vs eNOS
T4 construct: During this time a progressive loss of tone occurred because of iNOS induction; from tissue; host or cells: rat thoracic aorta rings, endothelium-denuded, exposed to LPS
Method: (§2) The inhibition of eNOS and iNOS in situ in rat aortic rings was assessed by measuring the increases in ring tension caused by NO synthase inhibition. For studies of basal tone (reflecting eNOS), rings of thoracic aorta with intact endothelium were prepared as described previously (Rees et al. (1989) Br. J. Pharmacol. 96, 418-424) and cumulative concentration curves obtained for the inhibitors in the presence of a threshold concentration of phenylephrine (ED10≈10 nM). For studies of induced smooth muscle tone (reflecting iNOS), endothelium-denuded rings were exposed to LPS (0.1 μg/ml from S. typhosa) in the presence of phenylephrine at approximately ED90 for 6 h as described previously (Rees et al. (1990) Biochem. Biophys. Res. Commun. 173, 541-547). During this time a progressive loss of tone occurred because of iNOS induction. Cumulative concentration curves were then obtained for the inhibitors.

eNOS in rat aortic rings = target: T5, eNOS in rat aortic rings (Rattus norvegicus, UniProt Q62600); assay: Inhibition of eNOS in situ in rat aortic rings (basal tone, intact endothelium); format: cell-based; details: rings with intact endothelium; for inhibition at 300 µM: read-out: inhibition at 300 μM, cNOS in rat sortic rings; for IC50: basal tone, mean ±SEM (n), read-out: IC50 cNOS in rat sortic rings
T5 construct: from tissue; host or cells: rat thoracic aorta rings with intact endothelium
Method: as §2

human iNOS [2] = target: T1, human iNOS; assay: Inhibition of purified human iNOS ([14C]-L-arginine to citrulline conversion); format: biochemical; design: made in house; details: for Selectivity for iNOS vs. cNOS: purified human enzymes, ratio of Kd; for Selectivity for iNOS vs. cNOS [relative to LNMMA]: value in square brackets
Method: as §1

eNOS = target: T6, eNOS (Mus musculus, UniProt P70313); assay: Blood pressure in normal conscious mice (eNOS in vivo); details: conscious female CD-1 mice, dose range 1-1000 mg/kg, intravenous
T6 construct: from tissue; host or cells: whole animal: female CD-1 mice, untreated
Method: (§3) The inhibition of eNOS and iNOS in vivo was assessed by the effects of inhibitors on blood pressure in either normal (eNOS) or endotoxin shocked (iNOS) conscious mice. Female CD-1 mice (25-35 g) were anaesthetised briefly with isofluorane (2%). Cannula lines were implanted in the femoral vein, tunnelled subcutaneously to exit at the top of the back and connected to a swivel tether system for continuous monitoring of blood pressure and for inhibitor administration respectively. Following recovery from surgery, animals with mean blood pressures in the normal range (90-110 mm Hg) were used to obtain cumulative concentration curves for inhibitors on blood pressure either without further treatment (“normal mice”) or 7 h after administration of lipopolysaccharide (12.5 mg/kg of LPS from E. coli 026:B6 intravenously over 30 s) to induce shock (“shocked mice”).

iNOS [3] = target: T7, iNOS (Mus musculus, UniProt P29477); assay: Blood pressure in endotoxin shocked conscious mice (iNOS in vivo); details: conscious female CD-1 mice, 7 h after LPS 12.5 mg/kg i.v.
T7 construct: from tissue; host or cells: whole animal: female CD-1 mice, 7 h after LPS
Method: as §3

iNOS [4] = assay: Endotoxin induced vascular (plasma) leakage in rats; format: in vivo
Method: The effects of Example 7 on endotoxin induced vascular leakage were assessed in rats as described by Laszlo et al ((1994) Brit. J. Pharmacol. 111 1309-1315). […] However, Example 7 did abolish the iNOS-dependent delayed plasma leakage, with an ED50 of 1 mg/kg.

[5] = purified human iNOS, 30° C., 0.5 μM [14C]-L-arginine, read-out: Purified Human Enzyme Kd iNOS

SMILES	IC50 (human iNOS [1]) [µM]	Kd (human eNOS) [µM]	Kd (human nNOS) [µM]	IC50 (iNOS in rat aortic rings) [µM]	Selectivity for iNOS (iNOS in rat aortic rings)	inhibition at 300 µM (eNOS in rat aortic rings) [%]	IC50 (eNOS in rat aortic rings) [µM]	Selectivity for iNOS vs. cNOS (human iNOS [2])	Kd (human iNOS [2]; [5]) [µM]	Selectivity for iNOS vs. cNOS [relative to LNMMA] (human iNOS [2])	effect on blood pressure in normal mice (eNOS)	effect on blood pressure in shocked mice (iNOS [3])	aggravation of the endotoxin-induced plasma leakage (iNOS [4]; doses up to 5 mg/kg, administered concurrently with endotoxin)	ED50, abolition of iNOS-dependent delayed plasma leakage (iNOS [4]; endotoxin induced) [mg/kg]	Kd (human iNOS [2]; footnote: inhibition strongly time dependant on iNOS, read-out: Kd on iNOS, time dependent inhibition) [µM]
CSCC(=N)NCCS(=O)(=O)CC(N)C(=O)O (stereo not drawn) [Example 5, 2-Amino-6-(2-methylthio-1-imioethylamino)-4,4-dioxo-4-thiohexanoic acid]	95 ± 3	–	–	–	–	–	–	–	–	–	–	–	–	–	–
Br.Br.N=C(CF)NCCS(=O)(=O)CC(N)C(=O)O (stereo not drawn) [Example 1, 2-Amino-6-(1-imino-2-fluoroethylamino)-4,4-dioxo-4-thiahexanoic acid dihydrobromide]	5.5 ± 0.55	23	26	1.7 ± 0.7	>>200-fold	8	> 300	12	1.9	33	–	–	–	–	–
N=C(CO)NCCS(=O)(=O)CC(N)C(=O)O (stereo not drawn) [Example 6, 2-Amino-6-(2-hydroxy-1-iminoethylamino)-4,4-dioxo-4-thiahexanoic acid 1.67 hydrochloride 0.33 hydrobromide]	> 300	–	–	–	–	–	–	–	–	–	–	–	–	–	–
COCC(=N)NCCS(=O)(=O)CC(N)C(=O)O (stereo not drawn) [Example 2, 2-Amino-6-(1-imino-2-methoxyethylamino)-4,4-dioxo-4-thiohexanoic acid dihydrobromide dihydrate]	30 ± 3	–	–	33 ± 13	>10-fold	26	> 300	–	–	–	–	–	–	–	–
CC(=N)NCC[S+]([O-])CC(N)C(=O)O (stereo not drawn) [Example 8, 2-Amino-6-(1-iminoethylamino)-4-oxo-4-thiahexanoic acid]	–	100	68	2.7 ± 0.2	>100 fold	42	> 300	11	9.1	30	–	–	–	–	–
CC(=N)NCCS(=O)(=O)CC(N)C(=O)O (stereo not drawn) [Example 7, 2-Amino-6-(1-iminoethylamino)-4,4-dioxo-4-thiahexanoic acid]	14 ± 0.6	29	18	1.5 ± 0.3	67-fold	–	101 ± 21	27	2.9	73	no effect on blood pressure	restore fully the blood pressure to the normal range	did not cause aggravation	1	0.1
CC(=O)OCC(=N)NCCS(=O)(=O)CC(N)C(=O)O (stereo not drawn) [Example 3, dihydrobromide]	> 300	–	–	–	–	–	–	–	–	–	–	–	–	–	–
N=C(COCc1ccccc1)NCCS(=O)(=O)CC(N)C(=O)O (stereo not drawn) [Example 4, hydrobromide]	> 300	–	–	–	–	–	–	–	–	–	–	–	–	–	–
